In one assay the test system is P. falciparum 3D7. Conditions: cited from earlier work.
For assay [1], the system named is human fibroblast cell line. The arrangement: method as in Everson et al., 2021. Conditions: ref Everson et al., 2021, cited from earlier work.
The subject of another assay is HepG2. The arrangement: method as in Everson et al., 2021. The following applies: ref Everson et al., 2021, cited from earlier work.
Assay [2] has as its system P. falciparum NF54 strain. Nature of the assay: In vitro anti-Plasmodium assay (parasite lactate dehydrogenase). It counts as cell-based. The following applies: P. falciparum NF54 drug-sensitive strain, read-out: In vitro IC50 PfNF54. As for the experimental part: In vitro anti-Plasmodial assays were conducted at the H3D testing centre at the University of Cape Town. All 15 commercially available compounds were evaluated for anti-Plasmodium activity using a parasite lactate dehydrogenase assay as a marker for parasite survival, as previously described by. Briefly, the parasites were synchronized at the ring stage using d-sorbitol in water. Approximately 2 mg/mL stock solutions of reference drugs, chloroquine and artesunate, were prepared in water and DMSO respectively then stored in -20°C. Test compounds and reference drugs were serially diluted to give 10 concentrations with a final volume of 100 μL in each well. Parasites were incubated in the presence of the compounds at 37°C under hypoxic conditions (4% CO2 and 3% O2 in N2) for 72 h. The absorbance was measured at 620 nm on a microplate reader. Survival was plotted against concentration and the IC50-values were obtained using a non-linear dose-response curve fitting analysis via the Dotmatics software platform.

Assay [3] concerns Chinese Hamster Ovarian (CHO) cells. Nature of the assay: In vitro cytotoxicity, MTT assay, CHO cells. It counts as cell-based. The following applies: for IC50: CHO cells, MTT, 48 h, read-out: In vitro IC50 Mammalian cells; for Mammalian cells (SI): selectivity index, CHO vs PfNF54. How it is done: (§1) Selectivity of the compounds for the parasites was determined using two cytotoxicity assays both of which were conducted at the H3D Centre. Compounds were screened against the mammalian cells, Chinese Hamster Ovarian (CHO) and hepatocellular carcinoma (HepG2), using the 3-(4,5-dimethylthiazol-2-yl)-2,5-diphenyltetrazoliumbromide (MTT) assay. Cells were plated to a density of 10^5 cells/well in 96-well plates and allowed to attach for 24h. After that compounds were added at various concentrations from 50μM to 16nM and the cells incubated for a further 48h. Emetine was used as the control. After that MTT was added and plates were read 4h later. ‘‘Survival” was plotted against concentration and the IC50-values were obtained using a non-linear dose-response curve fitting analysis via the Dotmatics software platform.
For orientation: Tetrazolium assays rely on reduction of a dye to a coloured formazan, in cell work by metabolically active cells.

Assay [4] relates to hepatocellular carcinoma (HepG2). Nature of the assay: In vitro cytotoxicity, MTT assay, HepG2 cells. Conditions: for IC50: HepG2 cells, MTT, 48 h; for HepG2 (SI): selectivity index, HepG2 vs PfNF54. The assay is classed as cell-based, human. As for the experimental part: as §1
A further assay deals with PfHsp90-NTD (Plasmodium falciparum, UniProt Q8IC05). Briefly: Surface plasmon resonance (MP-SPR) binding to immobilized PfHsp90-NTD. How it is done: The NTD of PfHsp90 was expressed and purified as described in [29] and 20μg/ml of the protein was used to study the binding affinities of selected ligands using BioNavis Navi 420A ILVES multi-parametric surface plasmon resonance (MP-SPR) system (BioNavis, Finland) as previously described. Briefly, PfHsp90-NTD was immobilized to a Carboxymethyl dextran coated sensor slide (BioNavis SPR102- CMD-3D). The sensor slide was activated with 0.1 M EDC/0.05 M NHS. At pH 5, PfHsp90-NTD suspended in 5 mM of sodium acetate was immobilized on one channel of the 3 CMD chip. 1 M ethanolamine HCl was used to deactivate the chip by removing excess NHS = EDC, and the sensor cleaned with NaCl/NaOH unspecific binding molecules. Varying concentrations (0-2000/5000 nM) of compounds FTN-T2 and FTN-T5 were injected and introduced to the flow cell, allowing binding to the surface. Data Viewer (BioNavis, Finland) and Trace Drawer software version 1.8 (Ridgeview instruments, Uppsala, Sweden) were used to process and analyze the steady-state equilibrium constant data and estimate the binding affinities.
PfHsp90-NTD, sequence (Q8IC05 entry or part of it): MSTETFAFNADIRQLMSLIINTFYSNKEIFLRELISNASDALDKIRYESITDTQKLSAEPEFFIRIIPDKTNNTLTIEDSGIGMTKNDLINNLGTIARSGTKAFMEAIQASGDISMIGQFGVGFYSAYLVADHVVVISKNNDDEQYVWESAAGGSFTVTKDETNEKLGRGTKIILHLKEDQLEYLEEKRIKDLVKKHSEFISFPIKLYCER

Another assay relates to Plasmodium. Conditions: known inhibitor; ref (11); read-out: anti-Plasmodium IC50; cited from earlier work.
Where [5] appears, read: P. falciparum 3D7, chloroquine-sensitive strain, ref Everson et al., 2021, read-out: In vitro IC50 Pf3D7.
Setting [6] is: Plasmodium falciparum, NF54, 72 h.

Several values for one entry are separate records, joined by “and”; a condition that tells them apart may be missing. Equal values may be shown once. Read-outs that look alike come from different tables or passages of the source. A value given as a limit tells only on which side of the number the result lay.

The source of these data is publication PMC11588265, “Auto QSAR-based active learning docking for hit identification of potential inhibitors of Plasmodium falciparum Hsp90 as antimalarial agents” (PLOS ONE, 2024).

Consider `O=C(NCc1ccc2c(c1)OCO2)C1CCN(c2ncnc3onc(-c4cccc(F)c4)c23)CC1` [Compound 7], for which the IC50 in the assay on P. falciparum 3D7 (setting [5]) is 980 ± 654 nM.

Regarding `O=C(N[C@H]1CCc2ccccc21)C1CCN(c2ncccc2-c2nc(-c3ccccc3)no2)CC1` [Compound 10], the IC50 with P. falciparum 3D7 (setting [5]) was 1110 ± 970 nM; in assay [1] (human fibroblast cell line, read-out: In vitro IC50 Mammalian cells) it was greater than 24000 nM; in the assay with HepG2 (HepG2, read-out: In vitro IC50 HepG2), greater than 24000 nM. Further, in assay [1] (selectivity index), the “Mammalian cells (SI)” value is recorded as greater than 21. Besides, in the assay with HepG2 (selectivity index), the “HepG2 (SI)” value is on record as greater than 21.

As to `Nc1ncnc2c1nc(Br)n2[C@@H]1O[C@H](CO)[C@@H](O)[C@H]1O` [FTN-T2], the IC50 in assay [2] (setting [6]) is 4490 ± 1510 nM; in assay [3] (Cricetulus griseus), greater than 50000 nM; in assay [4] (Homo sapiens) it was 1500 nM. For the same compound, in assay [4], the “HepG2 (SI)” value amounted to 0. Besides, on PfHsp90-NTD (SPR, immobilized PfHsp90-NTD, read-out: equilibrium constant denoting affinity KD), the Kd was 7 nM and 7.11 nM.

On to `Cn1c(=O)ccn([C@@H]2O[C@H](CO)[C@@H](O)[C@H]2O)c1=O` [FTN-T5], for which the IC50 in assay [2] (72 h) is 1440 ± 500 nM; in assay [2] (setting [6]), less than 1500 nM; in assay [3] (Cricetulus griseus) it was greater than 50000 nM; in assay [4] (Homo sapiens), 42300 nM. The “average SI” value in assay [3] (CHO and HepG2 cell lines) was no less than 30. Besides, the “Mammalian cells (SI)” value in assay [3] is reported as greater than 35. Further, the “selectivity index (SI)” value in assay [4] (HepG2/CHO cells vs PfNF54) is on record as no less than 29. Moreover, the “HepG2 (SI)” value in assay [4] was 29. Besides, the Kd on PfHsp90-NTD (read-out: equilibrium constant denoting affinity KD) was 19.9 nM and 19 nM.

Consider `Nc1nc2c(ncn2[C@H]2C[C@H](F)[C@@H](CO)O2)c(=O)[nH]1` [FTN-T9], for which the IC50 in assay [2] (72 h) stood at 4860 ± 1140 nM. Moreover, in assay [3], the IC50 was greater than 50000 nM and the “Mammalian cells (SI)” value is greater than 10. In assay [4], the IC50 is greater than 50000 nM and the “HepG2 (SI)” value is recorded as greater than 10.

Turning to `COC1=C2C[C@@H](C)C[C@H](OC)[C@H](O)[C@@H](C)/C=C(\C)[C@H](OC(N)=O)[C@@H](OC)/C=C\C=C(/C)C(=O)NC(=CC1=O)C2=O` [Geldanamycin, geldanamycin], in the assay with Plasmodium, the IC50 was 20 nM.

Take `COc1ccc2c(c1)[nH]c1c(C)nccc12` [Harmine, reference compound]: the Kd at PfHsp90-NTD (equilibrium constant denoting affinity KD, SPR, immobilized PfHsp90-NTD) stood at 18.2 nM. For the same compound, the IC50 in the assay with P. falciparum 3D7 (P. falciparum, ref Shahinas et al., 2010, read-out: In vitro IC50 PfNF54/ Pf3D7) is 50 nM.

As usually defined, the Kd is the concentration at which binding is half-saturated.
